Literature values as cited in article PMC10376326, “Novel Acylselenourea Derivatives: Dual Molecules with Anticancer and Radical Scavenging Activity” (Antioxidants, 2023).

Set-up: method as in PMID 36671001
Conditions: selenoester analogs, 0.03 mg/mL, 90 min; cited from earlier work

## C=CC[Se]C(=O)c1ccco1 [C00001 2-furyl]
  DPPH Inhibitory%: 4.6 ± 7.5%

## C=CC[Se]C(=O)C=Cc1ccccc1 [C00001 2-phenylvinyl]
  DPPH Inhibitory%: 3.6 ± 5.3%

## C=CC[Se]C(=O)c1cccs1 [C00001 2-thiophenyl]
  DPPH Inhibitory%: 7.8 ± 10.4%

## C=CC[Se]C(=O)c1cccnc1 [C00001 3-pyridyl]
  DPPH Inhibitory%: 6.3 ± 2.9%

## C=CC[Se]C(=O)c1ccc2c(c1)OCO2 [C00001 5-benzo[d][1, 3]dioxyl]
  DPPH Inhibitory%: 0.0 ± 2.3%

## C=CC[Se]C(=O)c1ccccc1 [C00001 phenyl]
  DPPH Inhibitory%: 9.0 ± 1.2%

## C#CC[Se]C(=O)c1ccco1 [C00003 2-furyl]
  DPPH Inhibitory%: 5.4 ± 2.3%

## C#CC[Se]C(=O)C=Cc1ccccc1 [C00003 2-phenylvinyl]
  DPPH Inhibitory%: 2.4 ± 2.0%
